Data from PMC12073438, “Stereoselectivity of In Vivo Processes and Bioactivity of Farrerol Enantiomers” (Molecules, 2025).
Where two headings read alike, the source gives them in different places.

Legend:
CYP3A4/5 = assay: CYP inhibition in liver microsomes (midazolam); settings: CYP 3A4/5(M); marker substrate midazolam; liver microsomes
Procedure: (§1) A liver microsome working solution (20 mg/mL) contained potassium phosphate buffer (0.1 M, pH 7.4), hepatic microsomes and marker substrate solution, which phenacetin, diclofenic acid, S-mephenytoinwer, dextromethorphan, midazolam, coumarin and chlorzoxazone used as substrates for […], CYP2C9, CYP2C19, CYP2D6, CYP3A4/5, CYP2A6 and CYP2E1, respectively. In brief, 238.5 µL of liver microsome working solution was placed in a 1 mL EP tube. […] The reaction was started by injecting NADPH (1 mM), and the resulting mixture was incubated at 37 °C for 10 min. After centrifuging at 4000 rpm for 15 min, the supernatant was transferred and analyzed using LC-MS/MS to detect the corresponding metabolites. Each incubation was conducted in triplicate (n = 3).
(§2) An API 4000 LC/tandem mass spectrometry was used to analyze the concentration of metabolites of various chemical agents using a validated mode. An Atlantis T3 column (2.1 mm × 50 mm, 5 μm) was utilized, employing mobile phases consisting of a 0.1% formic acid solution (A) and a 0.1% acetonitrile formate solution (B). […] As for the detection of CYP 2E1 metabolite, the Flow composition was as follows: 0–0.30 min, 10% B; 0.30–1.30 min, 10–55% B; 1.30–1.50 min, 55–95% B; 1.50–2.00 min, 95% B; 2.00–2.01 min, 95–10% B; the low rate was 0.85 mL/min. ESI was conducted in positive ion mode. MRM was utilized to quantify each metabolite, detecting the following transitions: m/z 152.1/110 for acetaminophen, 312.1/230.0 for 4′-Hydroxydiclofenac, 235.0/150.0 for 4′-hydroxymephentoin, 258.2/199.1 for Dextrorphan, 342.1/203.0 for 1′-hydroxymidazolam, 161.1/133.1 for hydroxycoumarin, and 184.0/120.0 for 6-hydroxyclozoxadone.

CYP2C9 = CYP2C9 (Homo sapiens, UniProt P11712); assay: CYP inhibition in liver microsomes (diclofenac); settings: IC50, CYP 2C9, marker substrate diclofenac
Procedure: as §1, with “After centrifuging at 4000 rpm for 15 min, the supernatant was transferred and analyzed using LC-MS/MS to detect the corresponding metabolites.” left out
An API 4000 LC/tandem mass spectrometry was used to analyze the concentration of metabolites of various chemical agents using a validated mode. An Atlantis T3 column (2.1 mm × 50 mm, 5 μm) was utilized, employing mobile phases consisting of a 0.1% formic acid solution (A) and a 0.1% acetonitrile formate solution (B). […] ESI was conducted in positive ion mode.

CYP2A6 = target: T1, CYP2A6 (Homo sapiens, UniProt P11509); assay: CYP inhibition in liver microsomes (coumarin)
T1 sequence (P11509 1-494): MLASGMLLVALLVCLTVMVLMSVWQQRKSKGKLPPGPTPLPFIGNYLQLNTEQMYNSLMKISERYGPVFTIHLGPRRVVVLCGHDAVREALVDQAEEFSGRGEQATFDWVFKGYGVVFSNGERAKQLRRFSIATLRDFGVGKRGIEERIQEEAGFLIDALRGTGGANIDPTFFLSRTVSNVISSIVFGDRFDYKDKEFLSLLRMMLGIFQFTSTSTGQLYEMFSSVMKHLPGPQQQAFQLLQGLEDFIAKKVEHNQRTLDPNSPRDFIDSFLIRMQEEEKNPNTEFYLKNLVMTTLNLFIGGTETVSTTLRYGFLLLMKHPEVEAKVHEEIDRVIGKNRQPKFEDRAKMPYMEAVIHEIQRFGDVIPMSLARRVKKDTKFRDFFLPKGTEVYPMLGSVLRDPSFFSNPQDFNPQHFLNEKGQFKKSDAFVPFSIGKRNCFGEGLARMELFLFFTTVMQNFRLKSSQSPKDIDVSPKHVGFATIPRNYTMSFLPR
Procedure: as §1, §2

CYP1A2 = target: T2, CYP1A2 (Homo sapiens, UniProt P05177); assay: CYP inhibition in liver microsomes (phenacetin); settings: IC50, CYP 1A2, marker substrate phenacetin
T2 sequence (P05177 1-516): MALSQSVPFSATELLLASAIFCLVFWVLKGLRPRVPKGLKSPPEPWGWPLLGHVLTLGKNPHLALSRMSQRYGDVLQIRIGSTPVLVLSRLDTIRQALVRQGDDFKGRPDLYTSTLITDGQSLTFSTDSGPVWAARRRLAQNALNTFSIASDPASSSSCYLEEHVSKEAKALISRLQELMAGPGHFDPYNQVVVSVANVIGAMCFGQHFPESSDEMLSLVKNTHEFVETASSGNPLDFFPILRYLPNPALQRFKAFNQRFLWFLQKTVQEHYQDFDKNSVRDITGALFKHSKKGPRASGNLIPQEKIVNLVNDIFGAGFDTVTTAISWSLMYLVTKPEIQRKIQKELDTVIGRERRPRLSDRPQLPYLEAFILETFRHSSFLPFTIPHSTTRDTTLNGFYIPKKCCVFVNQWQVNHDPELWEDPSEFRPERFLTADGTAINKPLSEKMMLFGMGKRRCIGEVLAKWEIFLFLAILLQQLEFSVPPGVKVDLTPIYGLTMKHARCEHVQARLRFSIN
Procedure: as §1, §2

Sequence of CYP2C9 (P11712 whole entry): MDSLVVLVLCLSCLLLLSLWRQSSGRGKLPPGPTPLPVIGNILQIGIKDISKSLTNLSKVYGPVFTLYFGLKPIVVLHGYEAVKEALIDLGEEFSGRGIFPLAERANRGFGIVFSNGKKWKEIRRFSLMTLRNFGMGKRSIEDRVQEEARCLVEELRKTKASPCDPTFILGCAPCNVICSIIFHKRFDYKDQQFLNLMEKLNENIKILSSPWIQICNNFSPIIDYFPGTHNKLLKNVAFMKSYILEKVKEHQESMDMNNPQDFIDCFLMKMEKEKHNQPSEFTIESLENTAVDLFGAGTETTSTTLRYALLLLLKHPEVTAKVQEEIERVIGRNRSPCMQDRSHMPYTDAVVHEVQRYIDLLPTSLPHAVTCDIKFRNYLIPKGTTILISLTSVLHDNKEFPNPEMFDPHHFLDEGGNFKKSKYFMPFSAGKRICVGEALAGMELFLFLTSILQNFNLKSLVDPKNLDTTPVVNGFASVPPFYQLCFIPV

| Structure (SMILES) | IC50 (CYP3A4/5) [M] | IC50 (CYP2C9) [nM] | IC50 (CYP2A6) [nM] | IC50 (CYP1A2) [nM] | IC50 (CYP2A6; CYP 2A6, marker substrate coumarin, liver microsomes) [nM] |
| --- | --- | --- | --- | --- | --- |
| Cc1c(O)c(C)c2c(c1O)C(=O)CC(c1ccc(O)cc1)O2 (single isomer, unassigned; (+)) [(+)-farrerol, 2,3-dihydro-5,7-dihydroxy-2-(4-hydroxyphenyl)-6,8-dimethyl-4-benzopyrone] | > 5e-05 | 1970 | > 50000 | 588 |  |
| Cc1c(O)c(C)c2c(c1O)C(=O)CC(c1ccc(O)cc1)O2 (single isomer, unassigned; (-)) [(−)-farrerol, 2,3-dihydro-5,7-dihydroxy-2-(4-hydroxyphenyl)-6,8-dimethyl-4-benzopyrone] | 2.09e-05 | 1570 |  | 1020 | > 50000 |
